Data from patent publication US20100280040A1 (KAOHSIUNG MEDICAL UNIVERSITY, priority 2009, published 2010).
“And” between values parts separate entries of the source, which are not always exact repeats. Equal entries are not always repeated. Where two headings read alike, the source gives them in different places. Marks after values point to notes of the source that are not given here.

Assays:
[1] = tested on: rat tracheal smooth muscle cells (TSMCs); test: MTT assay on rat tracheal smooth muscle cells; type: cell-based, Wistar rat; details: for cytotoxicity on rat TSMCs: 0.001 to 100 μM, 24 hours, MTT
Experimental: Tracheal tissue of Wistar rat (200 g to 250 g) was aseptically obtained and connective tissue around the tracheal tissue was removed. […] Supernatant was discarded after centrifugation, and cells were resuspended in 10 ml fresh medium B and cultured on 10 cm cull culture plate to proceed the subsequent experiments. The third to sixth generations of cells were used in the following experiments. Cell concentration was adjusted to 10^4 cells/ml by using a cell counter. Ten thousand cells (1 ml) were inoculated in 24-well culture plate for 24 hours, and cells were attached thereon. Medium B then was added to culture cells for another 24 hours. Subsequently, different concentrations of drugs were added into wells for continuously incubating for 24 hours in low-oxygen incubator. MTT (methylhiazolyldiphenyl-tetrazolium bromide, 100 μl, 5 mg/ml) was added into the wells for darkly reacted for 3 hours at 37° C. Isopropanol of 500 μl was added to solve the […], formazan, after MTT was withdrawn. After 10 minutes, the supernatant ([…]) was transferred to the new 96-well culture plate to determine the absorbance at 540 nm (OD540) and 630 nm (OD630). The effect of drug on cellular growth was evaluated by the value of “OD540-OD630”.

[2] = Pharmacokinetic analysis of MSC in male ICR mice (plasma MSC by LC-MS/MS); type: in vivo; details: for Maximum mean plasma concentration of MSC / Minimum mean plasma concentration of MSC / Mean plasma concentration of MSC: ICR mice; for Maximum mean plasma concentration of MSC: 2 min; for Mean plasma concentration of MSC: 2 hours
[3] = for Maximum mean plasma concentration of MSC / Minimum mean plasma concentration of MSC: CD-1 (Crl) mice; for Maximum mean plasma concentration of MSC: 2 min
Experimental: These pharmaceutical solutions were vortexed and sonicated to be fully dissolved to accomplish the preparation of drugs for i.v. administration.
Male Sprague-Dawley (SD) rats (body weight: 250˜292 g) and male CD-1 (Crl) mice (body weight: 23˜25 g) were purchased from BioLasco Taiwan Co., Ltd., Taiwan, and male ICR mice (body weight: 23˜25 g) were provided from MDS Pharma Services (King of Prussia, Pa., U.S.A.). […] Rats and mice were fasted at least 16 hours prior to oral administration.
Regarding CD-1 (Crl) mice and ICR mice, blood samples were collected by cardiac puncture post i.v. administration for 0, 2, 5, 15, 30 minutes, 1, 1.5, 2, 4, 6, 9, 24 and 27 hours (a total of 13 sampling time points). Blood samples of mice were collected by cardiac puncture before oral administration. Blood samples of three mice were collected at each time point by cardiac puncture post oral administration for 15, 30 minutes, 1, 1.5, 2, 4, 6, 9, 24 and 27 hours (a total of 11 sampling time points). Blood sample (0.5˜0.7 ml) collected by cardiac puncture was placed in a 1.5-ml Eppendorf microcentrifuge tube containing 5 μl of anti-coagulant heparin sodium (5,000 I.U./ml), followed by centrifugation at 12,000 rpm at 4° C. for 10 minutes. The plasma fraction was transferred to a clean microcentrifuge tube and stored at −70° C.
Plasma sample was mixed with acetonitrile and centrifuged, and the supernatant was injected onto an LC column. The pharmacokinetic parameters were calculated from mean plasma concentration by WinNonlin Standard program (version 3.1, Pharsight Corp.).

[4] = Pharmacokinetic analysis of Pulmodil in male SD rats (plasma MSC by LC-MS/MS); type: in vivo, male Sprague-Dawley (SD) rats; details: for Maximum mean plasma concentration of MSC / Minimum mean plasma concentration of MSC / Mean plasma concentration of MSC: SD rats
[5] = Mean plasma concentration of MSC after different dosage forms of Pulmodil in SD rats (3 groups, 8 rats per group); type: in vivo
Excerpt: First, SD rats were divided into 3 groups, 8 rats per group.

[6] = MSC single i.v. 2.0 mg/kg, male ICR mice
[7] = MSC single oral 20.0 mg/kg, male ICR mice
[8] = Pulmodil-1 single i.v. 2.0 mg/kg, male CD-1 (Crl) mice
[9] = Pulmodil single i.v. 2.0 mg/kg, male SD rats
[10] = Pulmodil single oral 18.3 mg/kg, male SD rats
[11] = Pulmodil single sublingual 3.4 mg/kg, male SD rats
[12] = Pulmodil-1 single oral 20.0 mg/kg, male CD-1 (Crl) mice

## Cn1c(=O)c2c(ncn2CCN2CCN(c3ccccc3Cl)CC2)n(C)c1=O [MSC]
[1]
  cytotoxicity on rat TSMCs: did not show cytotoxicity
[2]; MSC i.v. 2.0 mg/kg, 2 mg/kg
  Maximum mean plasma concentration of MSC: 447.76 ± 50.30 ng/mL and 447.76 ng/mL
[2]; MSC i.v. 2.0 mg/kg, 24 hr
  Minimum mean plasma concentration of MSC: 0.39 ng/mL
[2]; MSC i.v.
  Mean plasma concentration of MSC: 4.82 ± 1.98 ng/mL
[2]; MSC oral 20.0 mg/kg, 20 mg/kg
  Maximum mean plasma concentration of MSC: 205.92 ± 56.94 ng/mL and 205.92 ng/mL
[2]; MSC oral 20.0 mg/kg, 9 hr, 20 mg/kg
  Minimum mean plasma concentration of MSC: 3.74 ± 1.62 ng/mL and 3.74 ng/mL
[2]; MSC oral
  Mean plasma concentration of MSC: 94.26 ± 40.36 ng/mL
[2]; [6]
  AUC(0-inf): 236.6 ng·h/mL
  C(0): 515.8 ng/mL
  Cl: 140.9 mL/min/kg
  MRT: 120 min
  Vss: 17.2 L/kg
  Vz: 79.0 L/kg
[2]; MSC single i.v. 2.0 mg/kg, male ICR mice, determined between 9 and 24 hours
  t1/2: 6.5** hr
[2]; [7]
  AUC(0-inf): 462.5 ng·h/mL
  Bioavailability: 19.5%
  MAT (MRTPO − MRTIV): 48 min
  MRT: 168 min
  Tmax: 15 min
[2]; MSC single oral 20.0 mg/kg, male ICR mice, 20 mg/kg
  Cmax: 205.9 ng/mL
[2]; MSC single oral 20.0 mg/kg, male ICR mice, determined between 4 to 9 hours
  t1/2: 1.2** hr

## Cl.Cn1c(=O)c2c(ncn2CCN2CCN(c3ccccc3Cl)CC2)n(C)c1=O [Pulmodil, 7-[2-[4-(2-chlorobenzene)piperazinyl]ethyl]-1,3-dimethylxanthine.HCl]
[3]; [8]
  Cmax: 1785.0 ng/mL
[1]
  cytotoxicity on rat TSMCs: did not show cytotoxicity
[1]; high concentrations (10 and 100 μM), rat TSMCs
  cell survival rate: ~100%
[4]; Pulmodil i.v. 2.0 mg/kg, 2 min, 2 mg/kg
  Maximum mean plasma concentration of MSC: 1263.1 ± 181.4 ng/mL and 1263.1 ng/mL
[4]; Pulmodil i.v. 2.0 mg/kg, 6 hr, 2 mg/kg
  Minimum mean plasma concentration of MSC: 0.7 ± 0.3 ng/mL and 0.7 ng/mL
[4]; Pulmodil oral 20 mg/kg, 5 min
  Maximum mean plasma concentration of MSC: 1294.1 ng/mL
[4]; Pulmodil oral 20 mg/kg, 9 hr
  Minimum mean plasma concentration of MSC: 5.9 ng/mL
[4]; Pulmodil oral 20 mg/kg, 24 hr (text: 24- and 27-hour), 20 mg/kg
  Mean plasma concentration of MSC: 0.2 ± 0.1 ng/mL and 0.2 ng/mL
[4]; Pulmodil oral 20 mg/kg, within 2 minutes
  Mean plasma concentration of MSC: 879.7 ng/mL
[4]; [9]
  AUC(0-inf): 608 ng·h/mL
  Cl: 51.7 mL/min/kg
  MRT: 36 min
  Vss: 1.8 L/kg
  Vz: 3.4 L/kg
  t1/2: 48 min
[4]; [10]
  AUC(0-inf): 1142 ng·h/mL
  Cmax: 1390 ng/mL
  MAT (MRTPO − MRTIV): 66 min
  MRT: 102 min
  Tmax: 6 min
  t1/2: 198 min
[4]; [11]
  AUC(0-inf): 42 ng·h/mL
  Bioavailability: 3.7%
  Cmax: 27 ng/mL
  MAT (MRTSL − MRTIV): 108 min
  MRT: 144 min
  Tmax: 6 min
  t1/2: 138 min
[4]; Pulmodil sublingual 3.6 mg/kg, 10 min
  Maximum mean plasma concentration of MSC: 25.9 ± 5.5 ng/mL and 25.9 ng/mL
[4]; Pulmodil sublingual 3.6 mg/kg, 9 hr
  Minimum mean plasma concentration of MSC: 0.7 ng/mL
[4]; Pulmodil sublingual 3.6 mg/kg, within 2 minutes
  Mean plasma concentration of MSC: 22.5 ± 4.1 ng/mL
[4]; route not stated, given as fraction
  Bioavailability: 0.2
[5]; Pulmodil i.v. 2.0 mg/kg, 2 minutes
  highest mean plasma concentration of MSC: 1263.12 ± 181.44 ng/mL
[5]; Pulmodil i.v. 2.0 mg/kg, 5 minutes
  highest mean plasma concentration of MSC: 1171.077 ± 222.16 ng/mL
[5]; Pulmodil oral 20 mg/kg, 5 minutes
  highest mean plasma concentration of MSC: 954.32 ± 332.81 ng/mL
[5]; Pulmodil oral 20 mg/kg, 10 minutes
  highest mean plasma concentration of MSC: 806.85 ± 160.05 ng/mL
[5]; Pulmodil sublingual 3.6 mg/kg, 2 minutes
  highest mean plasma concentration of MSC: 22.48 ± 4.09 ng/mL
[5]; Pulmodil sublingual 3.6 mg/kg, 30 minutes
  highest mean plasma concentration of MSC: 18.24 ± 5.70 ng/mL

## Cn1c(=O)c2c(ncn2CCN2CCN(c3ccccc3Cl)CC2)n(C)c1=O.O=C(O)CC(O)(CC(=O)O)C(=O)O [Pulmodil-1, 7-[2-[4-(2-chlorobenzene)piperazinyl]ethyl]-1,3-dimethylxanthine.citric acid]
[3]; Pulmodil-1 i.v. 2.0 mg/kg, 2 mg/kg
  Maximum mean plasma concentration of MSC: 1425.4 ± 138.2 ng/mL and 1425.4 ng/mL
[3]; Pulmodil-1 i.v. 2.0 mg/kg, 2 hr, 2 mg/kg
  Minimum mean plasma concentration of MSC: 2.7 ± 2.2 ng/mL and 2.7 ng/mL
[3]; Pulmodil-1 oral 20.0 mg/kg, 20 mg/kg
  Maximum mean plasma concentration of MSC: 683.2 ± 187.5 ng/mL and 683.2 ng/mL
[3]; Pulmodil-1 oral 20.0 mg/kg, 4 hr
  Minimum mean plasma concentration of MSC: 11.9 ng/mL
[3]; [8]
  AUC(0-inf): 371.3 ng·h/mL
  Cl: 90 mL/min/kg
  Cmax: 1785.0 ng/mL
  Vss: 1.4 L/kg
  Vz: 2.0 L/kg
[3]; Pulmodil-1 single i.v. 2.0 mg/kg, male CD-1 (Crl) mice, determined between 0.5 and 2 hours
  t1/2: 0.3 h
[3]; [12]
  AUC(0-inf): 379.3 ng·h/mL
  Cmax: 683.0 ng/mL
  MAT (MRTPO − MRTIV): 42 min
  Tmax: 18 min
[3]; Pulmodil-1 single oral 20.0 mg/kg, male CD-1 (Crl) mice, 20 mg/kg
  Bioavailability: 10% and 10.2%
[3]; Pulmodil-1 single oral 20.0 mg/kg, male CD-1 (Crl) mice, determined between 0.5 to 4 hours
  t1/2: 1.0* hr
[1]
  cytotoxicity on rat TSMCs: did not show cytotoxicity
